Assay results from patent publication US20240158392A1 (Janssen Biotech, Inc., priority 2021, published 2024).

Target: SIK2 (Homo sapiens, UniProt Q9H0K1)
Assay: SIK2 Enzymatic Assay High Version 2 (High ATP)
Format: biochemical
Details: not given
How it was run: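 At room temperature, enzyme (6 nM, 2× final) was preincubated with compound for 30 min, then 6 mM ATP and 400 μM HDAC5tide (both 2× final) were added for 2 h. ADP formed was measured by ADP-Glo Max (2 h reagent, 1 h detection) using luminescence.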

Sequence of SIK2 (Q9H0K1 whole entry, species assumed): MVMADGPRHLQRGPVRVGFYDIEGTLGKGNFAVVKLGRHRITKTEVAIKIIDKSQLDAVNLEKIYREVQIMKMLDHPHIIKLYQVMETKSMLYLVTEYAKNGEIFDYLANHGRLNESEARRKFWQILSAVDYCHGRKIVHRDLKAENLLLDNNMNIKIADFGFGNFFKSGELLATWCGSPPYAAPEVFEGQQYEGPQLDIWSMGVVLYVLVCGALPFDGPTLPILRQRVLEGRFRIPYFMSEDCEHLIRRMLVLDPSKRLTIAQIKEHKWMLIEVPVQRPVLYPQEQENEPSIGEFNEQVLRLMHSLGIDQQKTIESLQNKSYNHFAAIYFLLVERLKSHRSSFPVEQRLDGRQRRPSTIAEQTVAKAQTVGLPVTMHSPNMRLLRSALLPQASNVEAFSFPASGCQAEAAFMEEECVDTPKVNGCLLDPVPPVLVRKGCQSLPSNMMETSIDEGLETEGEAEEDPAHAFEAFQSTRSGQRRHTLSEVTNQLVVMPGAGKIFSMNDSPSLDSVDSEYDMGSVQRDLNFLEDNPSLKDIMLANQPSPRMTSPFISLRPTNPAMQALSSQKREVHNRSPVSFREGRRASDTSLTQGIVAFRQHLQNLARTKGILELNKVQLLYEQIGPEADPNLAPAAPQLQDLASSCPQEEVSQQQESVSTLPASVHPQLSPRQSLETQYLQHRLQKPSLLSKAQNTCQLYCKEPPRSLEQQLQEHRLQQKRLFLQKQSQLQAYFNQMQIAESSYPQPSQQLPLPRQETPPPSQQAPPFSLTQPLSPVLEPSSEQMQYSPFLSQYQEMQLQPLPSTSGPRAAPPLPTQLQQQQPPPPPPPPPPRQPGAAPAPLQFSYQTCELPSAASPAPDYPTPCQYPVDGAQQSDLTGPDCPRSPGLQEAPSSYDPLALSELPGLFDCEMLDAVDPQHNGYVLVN

SMILES | IC50
Cc1cc(-c2ccn3nc(NC(=O)[C@@H]4C[C@H]4C)cc3c2)c(O[C@@H]2[C@@H]3CO[C@H]2CN3)cn1 [Example 463, (1R,2R)-2-methyl-N-[5-[2-methyl-5-[[(1S,4S,7R)-2-oxa-5-azabicyclo[2.2.1]heptan-7-yl]oxy]-4-pyridyl]pyrazolo[1,5-a]pyridin-2-yl]cyclopropanecarboxamide] | 0.0107 µM
Cc1cc(-c2ccn3nc(Nc4ccc(C(=O)NCC(C)(C)O)cn4)cc3c2)c(O[C@H]2C[C@H]3COC[C@@H](C2)N3)cn1 [Example 371, N-(2-hydroxy-2-methyl-propyl)-6-[[5-[2-methyl-5-[[(1S,5R,7s)-3-oxa-9-azabicyclo[3.3.1]nonan-7-yl]oxy]-4-pyridyl]pyrazolo[1,5-a]pyridin-2-yl]amino]pyridine-3-carboxamide] | < 0.000847 µM
Cc1cc(-c2ccn3nc(NC(=O)C4CC4)cc3c2)c(OC[C@H]2CCN2CC(F)(F)F)cn1 [Example 452, N-[5-[2-methyl-5-[[(2R)-1-(2,2,2-trifluoroethyl)azetidin-2-yl]methoxy]-4-pyridyl]pyrazolo[1,5-a]pyridin-2-yl]cyclopropanecarboxamide] | 0.015 µM
CN1[C@@H]2COC[C@H]1C[C@@H](Oc1ccc(C(F)F)cc1-c1ccn3nc(NC(=O)C4CC4)cc3c1)C2 [Example 482, N-[5-[5-(difluoromethyl)-2-[[(1R,5S)-9-methyl-3-oxa-9-azabicyclo[3.3.1]nonan-7-yl]oxy]phenyl]pyrazolo[1,5-a]pyridin-2-yl]cyclopropanecarboxamide] | 0.00424 µM
Cc1cc(-c2ccn3nc(Nc4cc(C)nc(C)n4)cc3c2)c(O[C@H]2C[C@H]3COC[C@@H](C2)N3C#N)cn1 [Example 336, (1S,5R)-7-[[4-[2-[(2,6-dimethylpyrimidin-4-yl)amino]pyrazolo[1,5-a]pyridin-5-yl]-6-methyl-3-pyridyl]oxy]-3-oxa-9-azabicyclo[3.3.1]nonane-9-carbonitrile] | < 0.000847 µM
Cc1cc(-c2ccn3nc(Nc4cc(F)n(C)n4)cc3c2)c(O[C@H]2C[C@H]3COC[C@@H](C2)N3)cn1 [Example 397, N-(5-fluoro-1-methyl-pyrazol-3-yl)-5-[2-methyl-5-[[(1S,5R,7s)-3-oxa-9-azabicyclo[3.3.1]nonan-7-yl]oxy]-4-pyridyl]pyrazolo[1,5-a]pyridin-2-amine] | 0.00133 µM
Cc1cc(-c2ccn3nc(NC(=O)C4CC4)cc3c2)c(O[C@H]2C[C@@](C)(N)C2)cn1 [Example 517, N-[5-[5-(3-amino-3-methyl-cyclobutoxy)-2-methyl-4-pyridyl]pyrazolo[1,5-a]pyridin-2-yl]cyclopropanecarboxamide] | 0.016 µM
Cc1cc(-c2ccn3nc(Nc4cc(C(F)(F)F)nn4C)cc3c2)c(O[C@H]2C[C@H]3COC[C@@H](C2)N3C)cn1 [Example 174, N-(1-methyl-3-(trifluoromethyl)-1H-pyrazol-5-yl)-5-(2-methyl-5-(((1R,5S,7s)-9-methyl-3-oxa-9-azabicyclo[3.3.1]nonan-7-yl)oxy)pyridin-4-yl)pyrazolo[1,5-a]pyridin-2-amine] | 0.108 µM
CNC(=O)c1ccnc(Nc2cc3cc(-c4cc(C)ncc4O[C@H]4C[C@H]5COC[C@@H](C4)N5C(=O)C4CC4)ccn3n2)c1 [Example 634, 2-((5-(5-(((1R,5S,7s)-9-(cyclopropanecarbonyl)-3-oxa-9-azabicyclo[3.3.1]nonan-7-yl)oxy)-2-methylpyridin-4-yl)pyrazolo[1,5-a]pyridin-2-yl)amino)-N-methylisonicotinamide] | 0.363 µM
Cc1cc(Nc2cc3cc(-c4cc(C)ncc4O[C@H]4C[C@H]5COC[C@@H](C4)N5C)ccn3n2)ncn1 [Example 421, 5-[2-methyl-5-[[(1R,5S,7s)-9-methyl-3-oxa-9-azabicyclo[3.3.1]nonan-7-yl]oxy]-4-pyridyl]-N-(6-methylpyrimidin-4-yl)pyrazolo[1,5-a]pyridin-2-amine] | 0.0122 µM
Cc1cc(-c2ccn3nc(NC(=O)C4CC4)cc3c2)c(OC[C@@H]2CCN2C)cn1 [Example 512, N-[5-[2-methyl-5-[[(2S)-1-methylazetidin-2-yl]methoxy]-4-pyridyl]pyrazolo[1,5-a]pyridin-2-yl]cyclopropanecarboxamide] | 0.0347 µM
Cc1cc(-c2ccn3nc(Nc4ccncn4)cc3c2)c(O[C@H]2C[C@H]3COC[C@@H](C2)N3C)cn1 [Example 420, 5-[2-methyl-5-[[(1R,5S,7s)-9-methyl-3-oxa-9-azabicyclo[3.3.1]nonan-7-yl]oxy]-4-pyridyl]-N-pyrimidin-4-yl-pyrazolo[1,5-a]pyridin-2-amine] | 0.00236 µM

Same assay, conditions: enzyme 6 nM, 6 mM ATP and 400 μM HDAC5tide (each 2× final concentration); 30 minutes pre-incubation, 2 hours; ADP-Glo Max luminescence; read-out: SIK2 high ATP IC50 (μM) (Test Example 2)

SMILES | IC50
Cc1cc(Nc2cc3cc(-c4cc(C(F)F)ncc4OCC(C)(C)O)ccn3n2)nc(C)n1 [Example 493, 1-[[6-(difluoromethyl)-4-[2-[(2,6-dimethylpyrimidin-4-yl)amino]pyrazolo[1,5-a]pyridin-5-yl]-3-pyridyl]oxy]-2-methyl-propan-2-ol] | 0.0662 µM
Cc1cc(-c2ccn3nc(Nc4cc(C)nc(C)n4)cc3c2)c(OC[C@H]2COC(C)(C)C2)cn1 (single isomer, unassigned) [Example 540, (*S)—N-(2,6-dimethylpyrimidin-4-yl)-5-[5-[(5,5-dimethyltetrahydrofuran-3-yl)methoxy]-2-methyl-4-pyridyl]pyrazolo[1,5-a]pyridin-2-amine] | 0.0585 µM
Cc1cc(Nc2cc3cc(-c4cc(OC(F)F)ncc4OCC(C)(N)C(F)(F)F)ccn3n2)nc(C)n1 (single isomer, unassigned) [Example 755, (*R)-5-[5-(2-amino-3,3,3-trifluoro-2-methyl-propoxy)-2-(difluoromethoxy)-4-pyridyl]-N-(2,6-dimethylpyrimidin-4-yl)pyrazolo[1,5-a]pyridin-2-amine] | 0.00215 µM
Cc1cc(-c2ccn3nc(Nc4cc(C)nc(C)n4)cc3c2)c(O[C@H]2C[C@@H](N)C2)cn1 [Example 314, 5-[5-(3-aminocyclobutoxy)-2-methyl-4-pyridyl]-N-(2,6-dimethylpyrimidin-4-yl)pyrazolo[1,5-a]pyridin-2-amine] | 0.0129 µM
Cc1cc(Nc2cc3cc(-c4cc(OC(F)F)ncc4O[C@H]4CC[C@H](O)CC4)ccn3n2)nc(C)n1 [Example 677, (1r,4r)-4-[[6-(difluoromethoxy)-4-[2-[(2,6-dimethylpyrimidin-4-yl)amino]pyrazolo[1,5-a]pyridin-5-yl]-3-pyridyl]oxy]cyclohexanol] | 0.000935 µM
Cc1cc(-c2ccn3nc(Nc4cc(C)nc(C)n4)cc3c2)c(OCC2(O)CCC2)cn1 [Example 217, 1-[[4-[2-[(2,6-dimethylpyrimidin-4-yl)amino]pyrazolo[1,5-a]pyridin-5-yl]-6-methyl-3-pyridyl]oxymethyl]cyclobutanol] | 0.0279 µM
Cc1cc(-c2ccn3nc(Nc4cnccn4)cc3c2)c(OC[C@@H]2CN(C)CCO2)cn1 [Example 515, 5-[2-methyl-5-[[(2S)-4-methylmorpholin-2-yl]methoxy]-4-pyridyl]-N-pyrazin-2-yl-pyrazolo[1,5-a]pyridin-2-amine] | 0.000864 µM
Cc1cc(-c2ccn3nc(Nc4cc(C)c(=O)n(C)n4)cc3c2)c(OC[C@@](C)(N)C(F)(F)F)cn1 (single isomer, unassigned) [Example 311, (*R)-6-[[5-[5-(2-amino-3,3,3-trifluoro-2-methyl-propoxy)-2-methyl-4-pyridyl]pyrazolo[1,5-a]pyridin-2-yl]amino]-2,4-dimethyl-pyridazin-3-one] | 0.0057 µM
Cc1cc(-c2ccn3nc(NC(=O)C4CC4)cc3c2)c(OCC(C)(O)C2CC2)cn1 (single isomer, unassigned) [Example 603, (*S)—N-[5-[5-(2-cyclopropyl-2-hydroxy-propoxy)-2-methyl-4-pyridyl]pyrazolo[1,5-a]pyridin-2-yl]cyclopropanecarboxamide] | 0.202 µM
Cc1cc(-c2ccn3nc(NC(=O)C4CC4)cc3c2)c(OC[C@@]2(O)CCN(C)C2)cn1 (single isomer, unassigned) [Example 522, (*R)—N-[5-[5-[(3-hydroxy-1-methyl-pyrrolidin-3-yl)methoxy]-2-methyl-4-pyridyl]pyrazolo[1,5-a]pyridin-2-yl]cyclopropanecarboxamide] | 0.013 µM
CC(C)(C#N)COc1cnc(OCC(F)(F)F)cc1-c1ccn2nc(NC(=O)C3CC3)cc2c1 [Example 669, N-[5-[5-(2-cyano-2-methyl-propoxy)-2-(2,2,2-trifluoroethoxy)-4-pyridyl]pyrazolo[1,5-a]pyridin-2-yl]cyclopropanecarboxamide] | 0.0526 µM
Cc1cc(-c2ccn3nc(Nc4cc(C)nc(C(C)(C)C)n4)cc3c2)c(OC[C@H]2OCC[C@@H]2O)cn1 [Example 298, (2R,3S)-2-[[4-[2-[(2-tert-butyl-6-methyl-pyrimidin-4-yl)amino]pyrazolo[1,5-a]pyridin-5-yl]-6-methyl-3-pyridyl]oxymethyl]tetrahydrofuran-3-ol] | 0.00667 µM
Cc1cc(Nc2cc3cc(-c4cc(OC(F)F)ncc4OCC(C)(C)C#N)ccn3n2)nc(N)n1 [Example 682, 3-[[4-[2-[(2-amino-6-methyl-pyrimidin-4-yl)amino]pyrazolo[1,5-a]pyridin-5-yl]-6-(difluoromethoxy)-3-pyridyl]oxy]-2,2-dimethyl-propanenitrile] | < 0.000847 µM
Cc1cc(-c2ccn3nc(NC(=O)C4CC4)cc3c2)c(OC[C@]2(C#N)CCNC2)cn1 (single isomer, unassigned) [Example 211, (*R)—N-[5-[5-[[(3R)-3-cyanopyrrolidin-3-yl]methoxy]-2-methyl-4-pyridyl]pyrazolo[1,5-a]pyridin-2-yl]cyclopropanecarboxamide] | 0.013 µM
CC#Cc1cc(-c2ccn3nc(Nc4ccn(C)n4)cc3c2)c(O[C@H]2CC[C@H](O)CC2)cn1 [Example 187, trans-4-[[4-[2-[(1-methylpyrazol-3-yl)amino]pyrazolo[1,5-a]pyridin-5-yl]-6-prop-1-ynyl-3-pyridyl]oxy]cyclohexanol] | 0.00407 µM
